Experimental data taken from PMC8814031, “Synthesis and characterization of novel combretastatin analogues of 1,1-diaryl vinyl sulfones, with antiproliferative potential via in-silico and in-vitro studies” (Scientific Reports, 2022).
Where two headings read alike, the source gives them in different places.

Experiments:
[1] = test system: MDA-MB 231 (breast cancer) cells; test: MTT antiproliferative assay, MDA-MB 231; type: cell-based; conditions: mean ± SEM of three experiments, read-out: IC50 values against selected human cancer cell lines, MDA-MB 231
Source text: (§1) A panel of four cancer cell lines used for testing the in-vitro cytotoxicity include: MDA-MB-231 derived from human breast adenocarcinoma cells (ATCC No HTB-26), HeLa derived from human cervical cancer cells (ATCC No. CCL-2), A549 derived from human alveolar adenocarcinoma epithelial cells (ATCC No. CCL-185) and IMR-32 derived from human neuroblastoma cell line (ATCC No CCL-127), with a normal cell line HEK-293 (human embryonic kidney cell). These cancer cell lines were obtained from the American Type Culture Collection (ATCC), Manassas, VA, USA, and stored before use.
(§2) The cytotoxicity of synthesized compounds 4A–V were determined in triplicates by 3-[4,5-dimethylthiazol-2-yl]-2,5-diphenyltetrazolium bromide (MTT) assay[51]^,[52]. The pale yellow coloured tetrazolium salt (MTT) reduced to a dark blue water-insoluble formazan by metabolically active cells and the product was measured quantitatively after solubility in DMSO. The absorbance of the soluble formazan is directly proportional to the number of viable cells. A panel of four cancer cell lines were used for testing the in-vitro cytotoxicity. These cell lines were grown in Dulbecco’s modified Eagle’s medium (DMEM) containing non-essential amino acids and 10% FBS. All the cells were maintained under humidified conditions of 5% CO2 atmosphere at 37 °C in a CO2 incubator (Model Galaxy 170S, Eppendorf, USA). The 96-well micro titre plates were incubated for 24 h prior to addition of the experimental compounds. Cells were treated with vehicle alone (DMSO) or compounds (drugs (1 µg/mL) were dissolved in 100 µL DMSO previously) at different concentrations (0.1, 1, 10 and 25 µM) of test compounds for 48 h. The assay was completed with the addition of MTT (5%, 10µL) and incubated for 60 min at 37 °C. The supernatant was aspirated and plates were air dried and the MTT-formazan crystals were dissolved in 100 µL of DMSO.
(§3) The optical density (O.D) was measured at 570 nm using TECAN multimode reader (Infinite® M200Pro, Tecan, Switzerland). The percent cell viability of each treated well of 96 well plate was calculated based on test wells relative to control wells. Doxorubicin was used as positive controls for comparison purpose and 1% DMSO as a vehicle control. The cytotoxicity of test compounds was expressed in terms of IC50 value, which is defined as a concentration of compound that produced 50% reduction absorbance relative to control, and the absorbance at 570 nm wavelength was recorded.

[2] = test system: HeLa (cervical cancer) cells; test: MTT antiproliferative assay, HeLa; type: cell-based; conditions: 48 h, mean ± SEM of three experiments, read-out: IC50 values against selected human cancer cell lines, HeLa
Source text: as §1, §2, §3

A549 (lung cancer) cells = test: MTT antiproliferative assay, A549; type: cell-based; conditions: Homo sapiens, 48 h, mean ± SEM of three experiments, read-out: IC50 values against selected human cancer cell lines, A549
Procedure: These cancer cell lines were obtained from the American Type Culture Collection (ATCC), Manassas, VA, USA, and stored before use.
The pale yellow coloured tetrazolium salt (MTT) reduced to a dark blue water-insoluble formazan by metabolically active cells and the product was measured quantitatively after solubility in DMSO. The absorbance of the soluble formazan is directly proportional to the number of viable cells. A panel of four cancer cell lines were used for testing the in-vitro cytotoxicity. These cell lines were grown in Dulbecco’s modified Eagle’s medium (DMEM) containing non-essential amino acids and 10% FBS. […] The 96-well micro titre plates were incubated for 24 h prior to addition of the experimental compounds. […] The supernatant was aspirated and plates were air dried and the MTT-formazan crystals were dissolved in 100 µL of DMSO.
The optical density (O.D) was measured at 570 nm using TECAN multimode reader (Infinite® M200Pro, Tecan, Switzerland). The percent cell viability of each treated well of 96 well plate was calculated based on test wells relative to control wells. Doxorubicin was used as positive controls for comparison purpose and 1% DMSO as a vehicle control.

[3] = test system: IMR-32 (neuroblast cancer) cells; test: MTT antiproliferative assay, IMR-32; type: cell-based; conditions: mean ± SEM of three experiments, read-out: IC50 values against selected human cancer cell lines, IMR32
Source text: as §1, §2, §3

[4] = test system: HEK-293 (human embryonic kidney normal cell line); test: MTT cytotoxicity assay, normal cell line HEK-293; type: cell-based; conditions: for IC50: normal cell line
Source text: as §1, §2, §3

Compound	IC50 ([1]; Homo sapiens, MDA-MB-231, 48 h) [µM]	IC50 ([2]; Homo sapiens, HeLa) [µM]	IC50 (A549 (lung cancer) cells) [µM]	IC50 ([3]; Homo sapiens, IMR-32, 48 h) [µM]	melting point [°C]	IC50 ([1]; 48 h) [µM]	IC50 [2] [µM]	IC50 ([3]; 48 h) [µM]	IC50 ([4]; Homo sapiens, HEK293, 48 h) [µM]	IC50 ([4]; 48 h) [µM]	Cytotoxicity towards normal cell line HEK-293 (in words) ([4]; normal cells)
COc1cc(/C(=C\S(=O)(=O)c2ccc(C)cc2)c2ccccc2)cc(OC)c1OC [Compound 4A, (Z)-1,2,3-trimethoxy-5-(1-phenyl-2-tosylvinyl)benzene]	19.4 ± 1.72	9.4 ± 0.72	6.39 ± 0.68	6.4 ± 0.82	139 to 141	–	–	–	> 25	–	–
COc1ccc(/C(=C/S(=O)(=O)c2ccc(C)cc2)c2cc(OC)c(OC)c(OC)c2)cc1 [Compound 4B]	14.6 ± 0.85	8.59 ± 0.58	4.68 ± 0.46	4.1 ± 0.96	124 to 126	–	–	–	> 25	–	–
COc1ccc(/C(=C/S(=O)(=O)c2ccc(C)cc2)c2cc(OC)c(OC)c(OC)c2)cc1OC [Compound 4D]	14.9 ± 1.54	10.9 ± 0.54	5.52 ± 0.06	6.25 ± 0.03	173 to 175	–	–	–	> 25	–	–
COc1cc(OC)cc(/C(=C/S(=O)(=O)c2ccc(C)cc2)c2cc(OC)c(OC)c(OC)c2)c1 [Compound 4E]	14.1 ± 1.51	11.1 ± 0.51	5.32 ± 0.92	6.23 ± 0.09	163 to 165	–	–	–	> 25	–	–
COc1cc(/C(=C\S(=O)(=O)c2ccc(C)cc2)c2ccc(C(F)(F)F)cc2)cc(OC)c1OC [Compound 4H]	15.9 ± 1.44	9.62 ± 0.44	6.84 ± 0.7	7.48 ± 0.13	125 to 127	–	–	–	> 25	–	–
CCOc1ccc(F)c(/C(=C/S(=O)(=O)c2ccc(C)cc2)c2cc(OC)c(OC)c(OC)c2)c1 [Compound 4K]	13.6 ± 0.89	9.5 ± 0.49	7.02 ± 0.84	8.06 ± 0.09	125 to 127	–	–	–	> 25	–	–
COc1cc(/C(=C\S(=O)(=O)c2ccc(C)cc2)c2cccc(C(F)(F)F)c2F)cc(OC)c1OC [Compound 4Q]	–	–	–	–	–	12.2 ± 1.61	10.7 ± 0.74	7.46 ± 0.61	–	> 25	–
COc1cc(/C(=C\S(=O)(=O)c2ccc(C)cc2)c2ccc(-c3ccccc3)cc2)cc(OC)c1OC [Compound 4U]	23.9 ± 1.56	11.7 ± 0.81	11.1 ± 0.78	11.8 ± 0.13	132 to 134	–	–	–	> 25	–	–
COc1cc(C#CS(=O)(=O)c2ccc(C)cc2)cc(OC)c1OC [Compound 4V]	–	–	–	–	119 to 121	–	–	–	–	–	showed some level of cytotoxicity

The next lines start with results.

IC50 ([1]; Homo sapiens, MDA-MB-231, 48 h) [µM]	IC50 ([2]; Homo sapiens, HeLa) [µM]	IC50 (A549 (lung cancer) cells) [µM]	IC50 ([3]; Homo sapiens, IMR-32, 48 h) [µM]	melting point [°C]	IC50 ([1]; 48 h) [µM]	IC50 [2] [µM]	IC50 ([3]; 48 h) [µM]	Compound	IC50 ([4]; Homo sapiens, HEK293, 48 h) [µM]	IC50 ([4]; 48 h) [µM]	Cytotoxicity towards normal cell line HEK-293 (in words) ([4]; normal cells)
13.6 ± 1.56	10.6 ± 0.56	7.04 ± 0.08	7.04 ± 0.83	107 to 109	–	–	–	COc1ccc(/C(=C/S(=O)(=O)c2ccc(C)cc2)c2cc(OC)c(OC)c(OC)c2)c(OC)c1 [Compound 4C]	> 25	–	–
13.2 ± 1.49	8.73 ± 0.49	6.92 ± 0.65	7.29 ± 0.46	141 to 143	–	–	–	COc1cc(/C(=C\S(=O)(=O)c2ccc(C)cc2)c2ccc(F)cc2)cc(OC)c1OC [Compound 4G]	> 25	–	–
12.7 ± 0.4	9.46 ± 0.4	13.1 ± 0.86	15.1 ± 0.16	113 to 115	–	–	–	COc1cc(/C(=C\S(=O)(=O)c2ccc(C)cc2)c2ccc(F)cc2F)cc(OC)c1OC [Compound 4I]	> 25	–	–
13.1 ± 0.92	9.98 ± 0.42	11.3 ± 0.83	12.03 ± 0.02	140 to 142	–	–	–	COc1cc(/C(=C\S(=O)(=O)c2ccc(C)cc2)c2ccc(F)c(F)c2)cc(OC)c1OC [Compound 4J]	> 25	–	–
13.4 ± 1.49	8.74 ± 0.49	8.54 ± 0.85	5.12 ± 0.36	123 to 125	–	–	–	COc1cc(/C(=C\S(=O)(=O)c2ccc(C)cc2)c2ccc(F)c(Cl)c2)cc(OC)c1OC [Compound 4L]	> 25	–	–
11.1 ± 1.5	–	5.12 ± 0.08	6.79 ± 0.44	96 to 98	–	–	–	COc1cc(/C(=C\S(=O)(=O)c2ccc(C)cc2)c2ccc(Cl)cc2)cc(OC)c1OC [Compound 4M]	> 25	–	–
9.85 ± 0.72	9.64 ± 0.96	6.79 ± 0.19	9.14 ± 0.84	151 to 153	–	–	–	COc1cc(/C(=C\S(=O)(=O)c2ccc(C)cc2)c2ccc(Cl)c(Cl)c2)cc(OC)c1OC [Compound 4N]	> 25	–	–
12.4 ± 1.67	9.83 ± 0.76	9.14 ± 0.91	9.08 ± 0.07	165 to 167	–	–	–	COc1cc(/C(=C\S(=O)(=O)c2ccc(C)cc2)c2ccc(C#N)cc2)cc(OC)c1OC [Compound 4O]	> 25	–	–
12.2 ± 0.54	10.5 ± 1.03	7.46 ± 0.07	6.14 ± 0.03	–	–	–	–	COc1cc(/C(=C\S(=O)(=O)c2ccc(C)cc2)c2cc(C)ccc2F)cc(OC)c1OC [Compound 4R]	> 25	–	–
10.4 ± 1.55	8.39 ± 0.99	7.22 ± 0.81	6.29 ± 0.07	124 to 126	–	–	–	COc1cc(/C(=C\S(=O)(=O)c2ccc(C)cc2)c2ccc(C)c(F)c2)cc(OC)c1OC [Compound 4T]	> 25	–	–
0.89 ± 0.02	1.68 ± 0.24	–	0.23	–	–	–	–	COc1cccc2c1C(=O)c1c(O)c3c(c(O)c1C2=O)C[C@@](O)(C(=O)CO)C[C@@H]3O[C@H]1C[C@H](N)[C@H](O)[C@H](C)O1 [Doxorubicin, reference compound]	–	–	–
